Data from ChEMBL document CHEMBL4680377, “Discovery of a Novel Series of Pyridone-Based EP3 Antagonists for the Treatment of Type 2 Diabetes” (ACS Med Chem Lett, 2021).
In brackets after ≈: the same amount, converted by molar mass.

Columns and labels:
[1] = target: T1, Prostaglandin E2 receptor EP3 subtype (Homo sapiens, UniProt P43115); assay: Antagonist activity at human EP3 expressed in CHO cells assessed as suppression of sulprostone-induced inhibition of forskolin induced cAMP production measured after 30 mins by HTR-FRET assay; format: functional, cell-based
T1 sequence (P43115 whole entry): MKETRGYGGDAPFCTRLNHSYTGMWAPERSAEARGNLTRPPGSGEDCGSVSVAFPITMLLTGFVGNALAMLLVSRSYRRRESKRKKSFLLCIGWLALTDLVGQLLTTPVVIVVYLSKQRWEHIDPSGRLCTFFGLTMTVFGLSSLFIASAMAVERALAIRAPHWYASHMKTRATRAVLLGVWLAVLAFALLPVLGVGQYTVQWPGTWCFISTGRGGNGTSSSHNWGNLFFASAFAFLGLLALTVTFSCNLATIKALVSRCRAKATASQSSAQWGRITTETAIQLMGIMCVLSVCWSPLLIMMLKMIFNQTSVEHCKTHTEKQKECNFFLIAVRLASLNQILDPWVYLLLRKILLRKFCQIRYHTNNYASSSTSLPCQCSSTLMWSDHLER

[2] = target: T1, Prostaglandin E2 receptor EP3 subtype; assay: Displacement of [3H]-PGE2 from human EP3 expressed in Chem-1 cell membranes incubated for 2 hrs by TopCount scintillation plate reader analysis; design: species or system Membrane
[3] = Metabolic stability in rat liver microsomes assessed as intrinsic clearance half life; format: ADME, Microsome
[4] = Kinetic solubility of compound in PBS buffer; format: physicochemical; conditions: read-out: Kinetic_solubility
[5] = Kinetic solubility of compound at pH 2; format: physicochemical; conditions: buffer, read-out: Kinetic_solubility
[6] = Metabolic stability in human liver microsomes assessed as intrinsic clearance half life; format: ADME, Microsome
[7] = Apparent permeability across apical to basolateral side in dog MDCK cells; format: ADME, cell-based, Canis lupus familiaris

| SMILES | IC50 [1] [nM] | Ki [2] [nM] | half-life [3] [h] | solubility kinetic [4] [µM] | solubility kinetic [5] [µM] | half-life [6] [h] | Papp A→B [7] [×10⁻⁶ cm/s] |
| --- | --- | --- | --- | --- | --- | --- | --- |
| CC(C)C1(c2ccc(-c3ccc4ccccc4c3)[nH]c2=O)OC(O)=NC1=O (configuration not stated) | 68 |  |  |  |  |  |  |
| CCn1ncc2cc(C)c(-c3ccc(C(/C=C4\OC(=O)NC4=O)(CC)CC)c(=O)[nH]3)cc21 | > 20000 | 5700 |  |  |  |  |  |
| CC(C)C(CC1C(=O)NC(=O)N1C)c1ccc(-c2ccc3cccc(F)c3c2)[nH]c1=O (configuration not stated) |  |  | < 0.0667 | 33.6 (≈ 14.2 µg/mL) | 26.6 (≈ 11.2 µg/mL) | 0.153 | 17.6 |
| CC(C)C(/C=C1/C(=O)NC(=O)N1C)c1ccc(-c2ccc3cccc(F)c3c2)[nH]c1=O (configuration not stated) |  |  | 1.08 | 34.8 (≈ 14.6 µg/mL) | 8.3 (≈ 3.48 µg/mL) | > 3 | 14.1 |
| Cc1cc(C(/C=C2\OC(=O)NC2=O)C(C)C)c(=O)[nH]c1-c1ccc2cccc(F)c2c1 (configuration not stated) |  |  | > 3 | 35.7 (≈ 15 µg/mL) | 39.4 (≈ 16.6 µg/mL) | > 3 |  |
| CCC(/C=C1\OC(=O)NC1=O)(CC)c1ccc(-c2ccc3cccc(C(C)C)c3c2)[nH]c1=O |  | 120 | 1.88 |  |  | 0.758 |  |
| CCn1nc(C)c2ccc(-c3ccc(C(/C=C4\OC(=O)NC4=O)(CC)CC)c(=O)[nH]3)cc21 | 18000 | 270 |  |  |  |  |  |
| O=C1NC(=O)/C(=C/C(c2ccc(-c3ccc4cccc(F)c4c3)[nH]c2=O)C2CC2)O1 (configuration not stated) |  |  | > 3 | 30.8 (≈ 12.5 µg/mL) | 3.85 (≈ 1.56 µg/mL) | 1.98 |  |
| CC(C)C(c1ccc(-c2ccc3cccc(F)c3c2)[nH]c1=O)C1SC(=O)NC1=O (configuration not stated) |  |  | 0.76 | 20.1 (≈ 8.25 µg/mL) | 11.3 (≈ 4.64 µg/mL) | 1.87 | 26.3 |
| CCC(/C=C1\OC(=O)NC1=O)(CC)c1ccc(-c2ccc3c(c2)OC(C)(C)CC3)[nH]c1=O | > 20000 | 2600 |  |  |  |  |  |
| O=C1NC(=O)/C(=C/C2(c3ccc(-c4ccc5cccc(F)c5c4)[nH]c3=O)CC2)O1 | 55 | 28 | > 3 | 33.4 (≈ 13 µg/mL) | 27.4 (≈ 10.7 µg/mL) | 2.48 |  |
| CC(C)C(c1ccc(-c2ccc3cccc(F)c3c2)[nH]c1=O)C1C(=O)NC(=O)N1C (configuration not stated) |  |  | 0.263 | 17.9 (≈ 7.29 µg/mL) | 13.6 (≈ 5.54 µg/mL) | 0.375 |  |
| O=C1NC(=O)/C(=C/C(c2ccc(-c3ccc4cccc(F)c4c3)[nH]c2=O)C2CCCCC2)O1 (configuration not stated) |  |  | 2.39 |  |  | 1.09 |  |
| O=C1NC(=O)/C(=C/C(Cc2ccccc2)c2ccc(-c3ccc4cccc(F)c4c3)[nH]c2=O)O1 (configuration not stated) |  |  | 2.96 | 9.1 (≈ 4.14 µg/mL) | 0.9 (≈ 0.409 µg/mL) | 1.3 |  |
| CCN1CCOc2ccc(-c3ccc(C(/C=C4\OC(=O)NC4=O)(CC)CC)c(=O)[nH]3)cc21 |  |  | 1.51 | 24.1 (≈ 10.5 µg/mL) | 21 (≈ 9.19 µg/mL) | 0.972 |  |
| CCC(/C=C1\OC(=O)NC1=O)(CC)c1ccc(-c2ccc3c(F)cc(F)cc3c2)[nH]c1=O |  | 290 |  |  |  |  |  |
| CCn1ncc2cc(F)c(-c3ccc(C(/C=C4\OC(=O)NC4=O)(CC)CC)c(=O)[nH]3)cc21 |  | 120 |  |  |  |  |  |
| CC(C)[C@@H](/C=C1\OC(=O)NC1=O)c1ccc(-c2ccc3cccc(F)c3c2)[nH]c1=O |  |  | > 3 | 26.4 (≈ 10.7 µg/mL) | 4.62 (≈ 1.88 µg/mL) | > 3 |  |
| CC(C)/C(=C1/SC(=O)NC1=O)c1ccc(-c2ccc3cccc(F)c3c2)[nH]c1=O |  |  | > 3 | 23.3 (≈ 9.52 µg/mL) | 9.2 (≈ 3.76 µg/mL) | > 3 | 22.9 |
| CC(C)C(/C=C1\OC(=O)NC1=O)c1cc(Cl)c(-c2ccc3cccc(F)c3c2)[nH]c1=O (configuration not stated) |  |  | > 3 | 21.5 (≈ 9.48 µg/mL) | 3.2 (≈ 1.41 µg/mL) | > 3 |  |

| SMILES | IC50 [1] [nM] | Ki [2] [nM] | half-life [3] [h] | solubility kinetic [4] [µM] | solubility kinetic [5] [µM] | half-life [6] [h] | Papp A→B [7] [×10⁻⁶ cm/s] |
| --- | --- | --- | --- | --- | --- | --- | --- |
| CCC(CC)C(/C=C1\OC(=O)NC1=O)c1ccc(-c2ccc3cccc(F)c3c2)[nH]c1=O (configuration not stated) |  |  | > 3 | 33.7 (≈ 14.6 µg/mL) | 3.68 (≈ 1.6 µg/mL) | > 3 |  |
| CCC(/C=C1\OC(=O)NC1=O)(CC)c1ccc(-c2ccc3cc(F)cc(F)c3c2)[nH]c1=O | 45 | 28 | > 3 |  |  | > 3 |  |
| CCC(/C=C1\OC(=O)NC1=O)(CC)c1ccc(-c2ccc3cccc(C(F)(F)F)c3c2)[nH]c1=O |  |  | 1.09 |  |  | 0.353 |  |
| CC(C)[C@H](/C=C1\OC(=O)NC1=O)c1ccc(-c2ccc3cccc(F)c3c2)[nH]c1=O |  |  | > 3 | 25.4 (≈ 10.3 µg/mL) | 10.8 (≈ 4.39 µg/mL) | > 3 |  |
| CCc1cccc2ccc(-c3ccc(C(/C=C4\OC(=O)NC4=O)(CC)CC)c(=O)[nH]3)cc12 |  |  | 1.77 |  |  | 0.178 |  |
| CC(C)/C(=C1\NC(=O)OC1=O)c1ccc(-c2ccc3cccc(F)c3c2)[nH]c1=O |  |  | > 3 |  |  | > 3 |  |
| CC(C)/C(=C1/OC(=O)NC1=O)c1ccc(-c2ccc3cccc(F)c3c2)[nH]c1=O | 1300 | 140 | > 3 |  |  | > 3 |  |
| CCn1cc2c(F)c(-c3ccc(C(/C=C4\OC(=O)NC4=O)(CC)CC)c(=O)[nH]3)ccc2n1 | > 20000 | > 10000 |  |  |  |  |  |
| O=C1NC(=O)/C(=C/C(c2ccccc2)c2ccc(-c3ccc4cccc(F)c4c3)[nH]c2=O)O1 (configuration not stated) |  |  | > 3 | 32.8 (≈ 14.4 µg/mL) | 15.4 (≈ 6.78 µg/mL) | 2.1 |  |
| CC(C)C(/C=C1\SC(=O)NC1=O)c1ccc(-c2ccc3cccc(F)c3c2)[nH]c1=O (configuration not stated) |  |  | 2.62 | 25.6 (≈ 10.8 µg/mL) | 4.8 (≈ 2.03 µg/mL) | > 3 | 15.4 |
| CCn1ncc2c(F)c(-c3ccc(C(/C=C4\OC(=O)NC4=O)(CC)CC)c(=O)[nH]3)ccc21 | > 20000 | 1300 |  |  |  |  |  |
| CC(C)C(/C=C1\NC(=O)NC1=O)c1ccc(-c2ccc3cccc(F)c3c2)[nH]c1=O (configuration not stated) |  |  | 1.46 | 10.7 (≈ 4.34 µg/mL) | 7.5 (≈ 3.04 µg/mL) | > 3 | 12.3 |
| CC(C)(/C=C1\OC(=O)NC1=O)c1ccc(-c2ccc3cccc(F)c3c2)[nH]c1=O |  |  | > 3 | 36.1 (≈ 14.2 µg/mL) | 1.66 (≈ 0.651 µg/mL) | 1.89 |  |
| O=C1NC(=O)/C(=C/C(c2ccc(-c3ccc4cccc(F)c4c3)[nH]c2=O)C2CCCC2)O1 (configuration not stated) |  |  | > 3 |  |  | 1.21 |  |
| O=C1NC(=O)/C(=C/C2(c3ccc(-c4ccc5cccc(F)c5c4)[nH]c3=O)CCCC2)O1 |  |  | > 3 | 24.5 (≈ 10.3 µg/mL) | 2.55 (≈ 1.07 µg/mL) | > 3 |  |
| CC(C)C(CC1NC(=O)NC1=O)c1ccc(-c2ccc3cccc(F)c3c2)[nH]c1=O (configuration not stated) |  |  | 0.35 | 12.3 (≈ 5.01 µg/mL) | 13 (≈ 5.3 µg/mL) | 1.59 | 17.1 |
| CC(C)C(c1ccc(-c2ccc3cccc(F)c3c2)[nH]c1=O)C1NC(=O)NC1=O (configuration not stated) |  |  | 0.145 | 10.6 (≈ 4.17 µg/mL) | 5.8 (≈ 2.28 µg/mL) | 0.578 |  |
| CC(C)[C@H](C[C@H]1SC(=O)NC1=O)c1ccc(-c2ccc3cccc(F)c3c2)[nH]c1=O (relative stereo) |  |  | 0.143 | 31.2 (≈ 13.2 µg/mL) | 4.9 (≈ 2.08 µg/mL) | 0.67 | 17.6 |
| CC(C)[C@@H](C[C@H]1SC(=O)NC1=O)c1ccc(-c2ccc3cccc(F)c3c2)[nH]c1=O (relative stereo) |  |  | 0.77 | 23.9 (≈ 10.1 µg/mL) | 12.2 (≈ 5.18 µg/mL) | 1.24 | 25.5 |
